Source: patent publication US12599582B2, “Pyrrole compounds” (ALIGOS THERAPEUTICS, INC., priority 2019, dated 2026)

Test system: HBV
Experiment: HBV-DNA Antiviral Assay Using HepG2.2.15 Cells (extracellular HBV DNA by qPCR)
Type: cell-based, hepatitis B virus (HBV)
Settings: Hepatitis B virus; HBV DNA inhibition, HepG2.2.15 cells, extracellular HBV DNA by qPCR; read-out: EC50
Method in brief: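 HepG2.2.15 cells were treated on day 1 with 8 concentrations (4-fold dilutions, duplicate; 0.5% DMSO), with compound-containing medium refreshed on day 4, at 37 °C. On day 7, supernatant HBV DNA was measured by qPCR against a plasmid standard curve, with inhibition normalised between DMSO and ETV controls. EC50/EC90 and CC50 (CellTiter-Glo ATP) came from variable-slope fits.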

Cc1c(C(=O)C(=O)NC2(c3ccncc3)CC(F)(F)C2)c(C)n(C)c1C(=O)Nc1ccc(F)c(C(F)(F)F)c1 [Compound 150, 4-[2-[[3,3-difluoro-1-(4-pyridyl)cyclobutyl]amino]-2-oxo-acetyl]-N-[4-fluoro-3-(trifluoromethyl)phenyl]-1,3,5-trimethyl-pyrrole-2-carboxamide]
EC50: < 1 nM

Cc1c(C(=O)C(=O)NC2(c3cn[nH]c3)COC2)c(C)n(C)c1C(=O)Nc1ccc(F)c(C#N)c1 [Compound 151, N-(3-cyano-4-fluoro-phenyl)-1,3,5-trimethyl-4-[2-oxo-2-[[3-(1H-pyrazol-4-yl)oxetan-3-yl]amino]acetyl]pyrrole-2-carboxamide]
EC50: 1 to 10 nM

Cc1c(C(=O)C(=O)NC(C)(C)c2ccncn2)c(C)n(C)c1C(=O)Nc1ccc(F)c(C#N)c1 [Compound 152, N-(3-cyano-4-fluoro-phenyl)-1,3,5-trimethyl-4-[2-[(1-methyl-1-pyrimidin-4-yl-ethyl)amino]-2-oxo-acetyl]pyrrole-2-carboxamide]
EC50: 1 to 10 nM

Cc1c(C(=O)C(=O)NC(C)(C)c2ccncn2)c(C)n(C)c1C(=O)Nc1ccc(F)c(C(F)(F)F)c1 [Compound 153, N-[4-fluoro-3-(trifluoromethyl)phenyl]-1,3,5-trimethyl-4-[2-[(1-methyl-1-pyrimidin-4-yl-ethyl)amino]-2-oxo-acetyl]pyrrole-2-carboxamide]
EC50: < 1 nM

Cc1c(C(=O)C(=O)NC2(c3ncc[nH]3)COC2)c(C)n(C)c1C(=O)Nc1ccc(F)c(C(F)(F)F)c1 [Compound 155, N-[4-fluoro-3-(trifluoromethyl)phenyl]-4-[2-[[3-(1H-imidazol-2-yl)oxetan-3-yl]amino]-2-oxo-acetyl]-1,3,5-trimethyl-pyrrole-2-carboxamide]
EC50: 1 to 10 nM

Cc1c(C(=O)C(=O)NC2(c3c[nH]cn3)COC2)c(C)n(C)c1C(=O)Nc1ccc(F)c(C(F)(F)F)c1 [Compound 156, N-[4-fluoro-3-(trifluoromethyl)phenyl]-4-[2-[[3-(1H-imidazol-4-yl)oxetan-3-yl]amino]-2-oxo-acetyl]-1,3,5-trimethyl-pyrrole-2-carboxamide]
EC50: < 1 nM

Cc1c(C(=O)C(=O)NC2(c3c[nH]cn3)COC2)c(C)n(C)c1C(=O)Nc1ccc(F)c(C#N)c1 [Compound 157, N-(3-cyano-4-fluoro-phenyl)-4-[2-[[3-(1H-imidazol-4-yl)oxetan-3-yl]amino]-2-oxo-acetyl]-1,3,5-trimethyl-pyrrole-2-carboxamide]
EC50: 1 to 10 nM

Cc1c(C(=O)C(=O)NC2(c3cn[nH]c3)COC2)c(C)n(C)c1C(=O)Nc1ccc(F)c(C(F)(F)F)c1 [Compound 158, N-[4-fluoro-3-(trifluoromethyl)phenyl]-1,3,5-trimethyl-4-[2-oxo-2-[[3-(1H-pyrazol-4-yl)oxetan-3-yl]amino]acetyl]pyrrole-2-carboxamide]
EC50: < 1 nM

Cc1c(C(=O)C(=O)NC(C)(C)c2ccc[nH]c2=O)c(C)n(C)c1C(=O)Nc1ccc(F)c(C(F)(F)F)c1 [Compound 159, N-[4-fluoro-3-(trifluoromethyl)phenyl]-1,3,5-trimethyl-4-[2-[[1-methyl-1-(2-oxo-1H-pyridin-3-yl)ethyl]amino]-2-oxo-acetyl]pyrrole-2-carboxamide]
EC50: 1 to 10 nM

Cc1c(C(=O)C(=O)NC(C)(C)c2ccc3[nH]cnc3c2)c(C)n(C)c1C(=O)Nc1ccc(F)c(C#N)c1 [Compound 160, 4-[2-[[1-(1H-benzimidazol-5-yl)-1-methyl-ethyl]amino]-2-oxo-acetyl]-N-(3-cyano-4-fluoro-phenyl)-1,3,5-trimethyl-pyrrole-2-carboxamide]
EC50: 1 to 10 nM

Cc1c(C(=O)C(=O)NC(C)(C)c2ccc[nH]c2=O)c(C)n(C)c1C(=O)Nc1ccc(F)c(C#N)c1 [Compound 161, N-(3-cyano-4-fluoro-phenyl)-1,3,5-trimethyl-4-[2-[[1-methyl-1-(2-oxo-1H-pyridin-3-yl)ethyl]amino]-2-oxo-acetyl]pyrrole-2-carboxamide]
EC50: 1 to 10 nM

Cc1cc(NC(=O)c2c(C)c(C(=O)C(=O)NC(C)(C)c3ccc4[nH]cnc4c3)c(C)n2C)ccc1F [Compound 162, 4-[2-[[1-(1H-benzimidazol-5-yl)-1-methyl-ethyl]amino]-2-oxo-acetyl]-N-(4-fluoro-3-methyl-phenyl)-1,3,5-trimethyl-pyrrole-2-carboxamide]
EC50: 1 to 10 nM
